Legend:
CYP2D6 = target: T1, CYP2D6 (Homo sapiens, UniProt P10635); assay: CYP enzyme inhibition test, Vivid CYP2D6 Cyan Screening Kit; format: in vitro ADME; conditions: for inhibitory effect on CYP2D6: conclusion in words
T1 construct: purchased
Method: (§1) Experimental Example 6: CYP Enzyme Inhibition Test CYP450 is the most important enzyme system in drug metabolism. The enzymes involved in metabolism interact with drugs, and the most important ones are CYP1A2, CYP2D6 and CYP3A4. P450-Glo™ CYP1A2 Screening System, Vivid® CYP2D6 Cyan Screening Kit and Vivid® CYP3A4 Red Screening Kit were used in this test, and the inhibitory effects of the compounds on CYP1A2, CYP2D6 and CYP3A4 were determined according to the instructions of the kit.

hNLRP3 inflammasome = target: T2, hNLRP3 inflammasome (Homo sapiens, UniProt Q96P20); assay: Agonistic effect on the expression of IL-1β in THP-1 cells after PMA-induced differentiation (HTRF); format: cell-based; conditions: IL-1β level, PMA-differentiated THP-1 cells, 6 hours
T2 construct: endogenous in cells; host or cells: THP-1 cells, PMA-differentiated
T2 sequence (Q96P20 whole entry): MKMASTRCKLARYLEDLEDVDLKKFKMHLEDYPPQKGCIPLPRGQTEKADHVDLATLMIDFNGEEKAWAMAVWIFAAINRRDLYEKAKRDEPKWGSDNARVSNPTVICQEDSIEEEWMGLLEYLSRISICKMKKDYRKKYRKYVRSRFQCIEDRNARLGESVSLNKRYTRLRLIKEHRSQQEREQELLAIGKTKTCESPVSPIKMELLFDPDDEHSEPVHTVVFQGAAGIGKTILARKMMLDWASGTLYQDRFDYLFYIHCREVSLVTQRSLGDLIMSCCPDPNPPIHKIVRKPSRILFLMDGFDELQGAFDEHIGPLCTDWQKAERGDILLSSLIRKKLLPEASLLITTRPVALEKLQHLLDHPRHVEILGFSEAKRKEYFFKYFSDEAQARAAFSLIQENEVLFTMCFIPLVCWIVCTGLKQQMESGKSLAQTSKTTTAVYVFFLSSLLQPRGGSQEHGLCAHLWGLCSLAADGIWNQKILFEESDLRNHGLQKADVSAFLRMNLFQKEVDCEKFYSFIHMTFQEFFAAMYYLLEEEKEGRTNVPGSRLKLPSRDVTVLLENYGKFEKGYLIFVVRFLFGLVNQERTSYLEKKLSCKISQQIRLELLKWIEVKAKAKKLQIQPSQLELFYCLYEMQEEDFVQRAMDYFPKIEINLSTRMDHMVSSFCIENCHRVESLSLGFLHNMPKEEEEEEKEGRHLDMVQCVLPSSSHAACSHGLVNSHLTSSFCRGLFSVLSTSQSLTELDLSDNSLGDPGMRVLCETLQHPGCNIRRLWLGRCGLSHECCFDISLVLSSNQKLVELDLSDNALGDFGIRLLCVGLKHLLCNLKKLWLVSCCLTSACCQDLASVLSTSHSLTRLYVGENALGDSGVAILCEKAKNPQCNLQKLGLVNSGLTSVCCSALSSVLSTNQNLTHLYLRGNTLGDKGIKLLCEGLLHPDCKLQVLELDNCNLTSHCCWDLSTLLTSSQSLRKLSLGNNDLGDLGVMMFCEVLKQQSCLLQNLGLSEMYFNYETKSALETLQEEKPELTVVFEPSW
In short: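 THP-1 cells differentiated with 1 μM PMA for 24 h, then replated at 1×10^5 cells/well in RPMI 1640 with 2% FBS. Compounds added for 6 h at 37 °C, 5% CO2. Supernatant IL-1β measured by HTRF; EC50 from four-parameter variable-slope fit.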

CYP3A4 = target: T3, CYP3A4 (Homo sapiens, UniProt P08684); assay: CYP enzyme inhibition test, Vivid CYP3A4 Red Screening Kit; format: in vitro ADME; conditions: for inhibitory effect on CYP3A4: conclusion in words
T3 construct: purchased
T3 sequence (P08684 whole entry): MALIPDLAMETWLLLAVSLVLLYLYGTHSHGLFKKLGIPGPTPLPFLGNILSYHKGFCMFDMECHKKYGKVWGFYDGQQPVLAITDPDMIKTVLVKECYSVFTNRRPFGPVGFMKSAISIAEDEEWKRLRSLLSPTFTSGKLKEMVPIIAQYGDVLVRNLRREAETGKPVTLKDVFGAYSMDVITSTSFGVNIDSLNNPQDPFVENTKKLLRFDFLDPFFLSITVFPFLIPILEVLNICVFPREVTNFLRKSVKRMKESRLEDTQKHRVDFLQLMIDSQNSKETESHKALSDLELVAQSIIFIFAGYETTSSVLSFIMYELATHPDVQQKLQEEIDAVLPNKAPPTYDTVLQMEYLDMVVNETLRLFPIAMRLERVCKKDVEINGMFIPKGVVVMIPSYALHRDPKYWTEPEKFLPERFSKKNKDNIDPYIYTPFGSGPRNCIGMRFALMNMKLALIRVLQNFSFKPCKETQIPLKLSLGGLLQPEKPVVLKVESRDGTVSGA
Method: as §1

hTLR8 = target: T4, hTLR8 (Homo sapiens, UniProt Q9NR97); assay: Agonistic effect on hTLR8, HEK-Blue hTLR8 cells, alkaline phosphatase secretion; format: cell-based; conditions: 16 hours
T4 construct: host or cells: HEK-Blue hTLR8 cells
T4 sequence (Q9NR97 27-1041): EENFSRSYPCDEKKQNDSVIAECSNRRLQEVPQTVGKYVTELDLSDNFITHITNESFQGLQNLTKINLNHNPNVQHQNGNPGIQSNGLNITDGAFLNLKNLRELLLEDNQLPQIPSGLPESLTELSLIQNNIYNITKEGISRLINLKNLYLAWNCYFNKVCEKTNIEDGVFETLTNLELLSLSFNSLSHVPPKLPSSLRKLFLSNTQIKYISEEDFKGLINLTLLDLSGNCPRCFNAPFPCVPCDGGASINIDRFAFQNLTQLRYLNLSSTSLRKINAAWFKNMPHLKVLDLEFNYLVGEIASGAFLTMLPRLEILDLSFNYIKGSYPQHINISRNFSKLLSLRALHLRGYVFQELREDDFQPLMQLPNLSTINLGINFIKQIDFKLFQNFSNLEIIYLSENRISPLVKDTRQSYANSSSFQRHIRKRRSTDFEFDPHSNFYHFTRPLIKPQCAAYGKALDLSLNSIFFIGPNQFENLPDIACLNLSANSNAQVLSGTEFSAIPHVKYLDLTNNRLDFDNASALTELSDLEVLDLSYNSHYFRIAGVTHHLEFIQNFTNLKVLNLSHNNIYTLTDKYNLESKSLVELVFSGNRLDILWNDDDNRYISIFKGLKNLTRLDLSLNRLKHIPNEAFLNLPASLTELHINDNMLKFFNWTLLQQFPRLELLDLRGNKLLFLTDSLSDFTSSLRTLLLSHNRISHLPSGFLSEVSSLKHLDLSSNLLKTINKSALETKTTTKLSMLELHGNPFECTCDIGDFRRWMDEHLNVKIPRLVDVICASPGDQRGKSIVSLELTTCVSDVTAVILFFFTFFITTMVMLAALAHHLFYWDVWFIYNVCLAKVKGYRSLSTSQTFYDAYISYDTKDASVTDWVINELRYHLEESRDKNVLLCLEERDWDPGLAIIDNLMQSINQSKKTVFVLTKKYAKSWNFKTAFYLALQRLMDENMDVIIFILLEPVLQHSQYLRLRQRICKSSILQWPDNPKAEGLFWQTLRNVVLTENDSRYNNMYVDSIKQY
In short: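 HEK-Blue hTLR8 reporter cells were treated with compound (diluted from 10 mM DMSO stock) for 16 h at 37 °C in DMEM/10% FBS. Secreted alkaline phosphatase in supernatant was detected with QUANTI-Blue after 3 h at 37 °C, read at OD620. EC50 came from a four-parameter variable-slope fit.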

T1 sequence (P10635 whole entry): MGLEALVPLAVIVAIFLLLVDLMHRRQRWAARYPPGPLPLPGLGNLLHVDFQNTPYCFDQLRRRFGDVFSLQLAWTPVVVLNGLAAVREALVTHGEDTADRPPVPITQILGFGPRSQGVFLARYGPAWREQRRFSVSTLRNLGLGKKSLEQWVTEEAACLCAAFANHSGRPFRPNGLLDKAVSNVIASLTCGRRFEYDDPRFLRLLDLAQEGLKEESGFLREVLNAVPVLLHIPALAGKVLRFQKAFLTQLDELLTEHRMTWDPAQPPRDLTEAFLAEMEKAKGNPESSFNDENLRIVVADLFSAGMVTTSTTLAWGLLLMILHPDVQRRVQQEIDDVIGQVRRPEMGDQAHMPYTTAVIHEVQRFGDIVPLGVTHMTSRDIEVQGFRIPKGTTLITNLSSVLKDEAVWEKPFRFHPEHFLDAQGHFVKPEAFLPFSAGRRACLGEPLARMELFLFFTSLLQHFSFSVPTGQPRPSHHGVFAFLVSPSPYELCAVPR

SMILES	IC50 (CYP2D6)	inhibitory effect on CYP2D6 (CYP2D6)	EC50 (hNLRP3 inflammasome)	IC50 (CYP3A4)	inhibitory effect on CYP3A4 (CYP3A4)	EC50 (hTLR8)
C[C@@H]1CN(CCNc2cc(N)nc3cc(-c4ccn[nH]4)sc23)C[C@@H](C)O1 [Compound 124, N^7-(2-((2R,6R)-2,6-dimethylmorpholino)ethyl)-2-(1H-pyrazol-5-yl)thieno[3,2-b]pyridine-5,7-diamine]	> 10 µM	no apparent inhibitory effects	0.05 µM	> 10 µM	no apparent inhibitory effects	> 100 µM
C[C@@H](CCO)Nc1cc(N)nc2cc(-c3ccn[nH]3)sc12 [Compound 125, (S)-3-((5-amino-2-(1H-pyrazol-5-yl)thieno[3,2-b]pyridin-7-yl)amino)butanol]	> 10 µM	no apparent inhibitory effects	0.03 µM	> 10 µM	no apparent inhibitory effects	> 100 µM
